In patent US20230348416A1, “GPR52 MODULATOR COMPOUNDS” (Heptares Therapeutics Limited, priority 2020, published 2023):

Legend:
[1] = Rat IV brain penetration (unbound brain-to-plasma ratio); format: in vivo, male Sprague-Dawley rats; conditions: male, Sprague-Dawley, brain and plasma, 1 mg/kg, 10 min post-dose, n = 3
Procedure: Plasma and brain exposure were evaluated to assess the brain penetration of Example 2, following IV administration. Unbound brain-to-plasma ratio (Kp,uu) was calculated, as detailed in Table 5, following experimental determination of binding in rat plasma and brain homogenate.
Methods: For brain penetration assessment, male Sprague-Dawley rats (n=3) were administered a single 1 mg/kg dose (formulated in 10% DMAC+10% Solutol HS15+80% saline) via the IV route. After 10 min post-dose, animals were sacrificed and brains extracted, homogenised with 2 volumes (w/v) of 50 mM sodium phosphate buffer (pH 7.4), and analysed by LC-MS/MS. Blood samples were removed at the same time point via tail vein bleed, centrifuged and the plasma analysed by LC-MS/MS.
To permit calculation of unbound brain-to-plasma ratio (Kp,uu), test compound binding in rat plasma and brain homogenate was performed, using Rapid Equilibrium Dialysis (RED). Test compound prepared in DMSO (1 μM final, 0.2% DMSO) was added to (i) undiluted male Sprague Dawley rat plasma and (ii) rat brain tissue homogenised with 2 volumes (w/v) of sodium phosphate buffer (pH 7.4), and dialysed against phosphate buffer for 5 h at 37° C. […] Fraction unbound (Fu) in plasma and brain was calculated using the following formula, then used to correct total plasma and brain concentrations to derive the Kp,uu: […]

[2] = molecular target: T1, human GPR52 (Homo sapiens, UniProt Q9Y2T5); experiment: GPR52 Agonist Functional cAMP Assay; format: cell-based
T1 construct: expressed in transfected cells; host or cells: HEKf suspension cells infected with BacMam virus
T1 sequence (Q9Y2T5 whole entry): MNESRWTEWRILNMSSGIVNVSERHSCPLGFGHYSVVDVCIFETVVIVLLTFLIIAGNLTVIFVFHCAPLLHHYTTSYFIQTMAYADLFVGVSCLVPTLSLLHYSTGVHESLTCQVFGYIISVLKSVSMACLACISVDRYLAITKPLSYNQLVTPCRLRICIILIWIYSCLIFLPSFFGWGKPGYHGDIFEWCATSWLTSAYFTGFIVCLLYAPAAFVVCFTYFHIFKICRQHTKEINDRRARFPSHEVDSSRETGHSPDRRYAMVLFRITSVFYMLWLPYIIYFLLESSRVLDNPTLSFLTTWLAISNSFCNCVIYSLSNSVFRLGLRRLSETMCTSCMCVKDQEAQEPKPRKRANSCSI
Procedure: GPR52 Agonist Functional cAMP Assay
HEKf suspension cells were infected for 24 h with 0.1% v/v human GPR52 expressing BacMam virus, a modified baculovirus designed for mammalian gene expression. Following BacMam infection, cells were pelleted by centrifugation (335 g, 5 min), resuspended in cell freezing medium (Sigma) and frozen at −150° C. until required. On experiment day, 25 nL GPR52 compound dilutions, prepared in DMSO, were stamped onto proxiplates (PerkinElmer) by a LabCyte ECHO acoustic dispenser. Frozen cells were thawed and resuspended in assay stimulation buffer (Cisbio) containing 0.5 mM 3-iso-butyl-1-methylxanthine (IBMX, Sigma) to achieve a density of 2000 cells per well. 10 μl cells were added to assay plates using a Multidrop Combi Reagent Dispenser (ThermoFisher) before centrifugation (335 g, 1 min). Cells were incubated with compounds at 37° C. for 30 min prior to addition of cAMP detection reagents (HiRange cAMP kit, Cisbio) which were prepared according to the manufacturer's instructions. Plates were shaken for 1 h at room temperature before reading on a PHERAstar FS plate reader (BMG Labtech) using standard HTRF settings. HTRF ratios were obtained by dividing the acceptor emissions (665 nm) by the donor emissions (620 nm) and multiplying by 10,000.

[3] = Rat IV and PO pharmacokinetic profiling; format: in vivo, male Sprague-Dawley rats; conditions: male, Sprague-Dawley, plasma, n = 3, mean ± standard deviation
Procedure: The pharmacokinetic profiles of Example 2 were assessed in male Sprague-Dawley rats via intravenous (IV) and oral (per os, PO) routes of delivery. Pharmacokinetic data (mean values±standard deviation) for Example 2 of the invention are detailed in Table 5.
Methods: For pharmacokinetic analysis, groups of three male Sprague-Dawley rats, ranging in weight between 200 and 230 g, were administered a single dose of Example 2 via IV or PO route, using the doses, dose volumes and vehicles specified in Table 5. Following dosing, blood samples were taken at several time points (pre-dose, 2 min, 5 min, 15 min, 30 min, 1 h, 3 h, 6 h, 12 h and 24 h for IV administration and pre-dose, 5 min, 15 min, 30 min, 1 hr, 2 h, 4 h, 8 h, 12 h and 24 h for PO administration) via serial tail vein bleeds, and centrifuged to separate plasma for analysis by LC-MS/MS. WinNonlin v8.2 statistics software (Pharsight Corporation, California, USA) was used to generate pharmacokinetic parameters using non-compartmental analysis.

With `CC(=O)NC1CCCc2c1nnn2-c1cc(Cc2cc(F)cc(C(F)(F)F)c2)ccn1` (centres unmarked) [Example 2, N-(1-(4-(3-fluoro-5-(trifluoromethyl)benzyl)pyridin-2-yl)-4,5,6,7-tetrahydro-1H-benzo[d][1,2,3]triazol-4-yl)acetamide] the Kp uu at 10 min [1] was 0.35 ± 0.02, the EC50 ([2]; HEKf cells infected with human GPR52 BacMam virus, HTRF cAMP, 30 min at 37° C., read-out: PEC50 average (converted)) was 50.1 nM and the Emax ([2]; maximal response normalised to DMSO (0%) and compound 7m of J. Med. Chem., 2014, 57, 5226 (100%)) was 86%. For the same compound, the clearance ([3]; rat IV, 1 mg/kg) was 5.5 ± 1 mL/min/kg and the bioavailability ([3]; rat PO, 3 mg/kg) was 88.2 ± 11.4%.
